According to US7816406B2, “Quinolone analogs” (Cylene Pharmaceuticals, Inc., priority 2004, dated 2010):
Where two headings read alike, the source gives them in different places.

Tests used:
c-Myc template DNA = assay: Quadruplex binding assay (STOP / Taq polymerase arrest, capillary electrophoresis); type: biochemical; settings: concentration at which 50% of the DNA was arrested (arrested:full-length 1:1)
Experimental: Generally, a 5′-fluorescent-labeled (FAM) primer (P45, 15 nM) was mixed with template DNA (15 nM) in a Tris-HCL buffer (15 mM Tris, pH 7.5) containing 10 mM MgCl2, 0.1 mM EDTA and 0.1 mM mixed deoxynucleotide triphosphates (dNTP's). In one example, the FAM-P45 primer (5′ -6FAM-[…] CAATT-3′) (SEQ ID NO. 17) and the c-Myc template DNA (5′-[…] […] […]-3′) (SEQ ID NO. 18) were synthesized and HPLC purified by Applied Biosystems. The mixture was denatured at 95° C. for 5 minutes and, after cooling down to room temperature, was incubated at 37° C. for 15 minutes.
After cooling down to room temperature, 1 mM KCl2 and the test compound (various concentrations) were added and the mixture incubated for 15 minutes at room temperature. The primer extension was performed by adding 10 mM KCl and Taq DNA Polymerase (2.5 U/reaction, Promega) and incubating at 70° C. for 30 minutes. The reaction was stopped by adding 1 μl of the reaction mixture to 10 μl Hi-Di Formamide mixed and 0.25 μl LIZ120 size standard. Hi-Di Formamide and LIZ120 size standard were purchased from Applied Biosystems. The partially extended quadruplex arrest product was between 61 or 62 bases long and the full-length extended product was 99 bases long. The products were separated and analyzed using capillary electrophoresis. Capillary electrophoresis was performed using an ABI PRISM 3100-Avant Genetic Analyzer. The assay was performed using compounds described above and results are shown in Table 1. μM concentrations reported in Table 1 are concentrations at which 50% of the DNA was arrested in the assay (ie., the ratio of shorter partially extended DNA (arrested DNA) to full-length extended DNA is 1:1).
Stop Assays. Stop assays are high throughput, first-pass screens for detecting drugs that bind to and stabilize the target G-quadruplex. Generally, DNA template oligonucleotide is created, which contains the nucleotide sequence of the “target” quadruplex against which drug screening is desired. A fluorescently labeled primer DNA is then annealed to the 3′ end of the template DNA. A DNA polymerase such as Taq polymerase is then introduced to synthesize a complementary strand of DNA by extending from the fluorescently labeled primer. When the progress of the Taq polymerase is unhindered, it synthesizes a full-length copy of the template. […] If, however, the test drug selectively binds to and stabilizes the quadruplex, the progress of polymerase arrests only at the quadruplex, and a characteristic “Stop Product” is synthesized.
Compounds are initially screened at a single concentration, and “hits” are re-assayed over a range of doses to determine an IC50 value (i.e., the concentration of drug required to produce an arrest product/full-length product ratio of 1:1). These products are visualized by capillary electrophoresis.

HCT-116 = assay: MTS cell proliferation assay, HCT-116; type: cell-based
Experimental: (§1) MTS assays. Antiproliferative effects of anticancer drugs are tested by the CellTiter 96 AQueous assay (Promega, WI), which is a colorimetric assay for determining the number of viable cells. (See, e.g., Wang, L., et al., Methods Cell Sci (1996) 18:249-255). Generally, cells (2,000 to 5,000 cells/well) are seeded on 96 well flat bottom plates (Corning, NY) in 100 μl of culture medium without any anticancer drug on day 0, and the culture medium is exchanged for that contained anticancer drugs at various concentrations on day 1. After incubation for 3 days under normal growth conditions (on day 4), the monolayers are washed once in PBS, and the medium is switched to 100 μl of PBS in each of the 96 well plate. After mixing MTS and PMS at the ratio of 20:1, 20 μl of MTS/PMS solution is added to each of the 96 well plate and incubated for 4 hours in a humidified atmosphere of 5% CO2 at 37° C. The absorbance is read at 490 nm using FLUOstar Galaxy 96 well plate reader (BMG Labtechnologies, Germany).

HCT116 cells = assay: HCT-116 colorectal cancer xenograft model, intravenous dosing; type: in vivo; settings: IV bolus, nu/nu mice
Experimental: 6 wk old female nu/nu mice were purchased from Taconic Farms, Germantown N.Y. They were injected with 5×10^6 HCT116 cells SQ in right flank. When tumors reached sufficient size for study, they were randomized into groups. • Vehicle: 242.9 mm^3 • Test compound: 251.0 mm^3
Animals dosed by bolus injection—IV through lateral tail vein for five consecutive days. Caliper measurements were taken on Day 1, 4, 6.
6 wk old female nu/nu mice were purchased from Simonsen Labs, Gilroy, Calif. They were injected with 5×10^6 HCT116 cells SQ in right flank. When tumors reached sufficient size for study, they were randomized into groups. • Vehicle: 101.9 mm^3 • Test compound: 152.8 mm^3
Animals dosed by bolus injection—IV through lateral tail vein for fourteen consecutive days. Caliper measurements were taken on Day 1, 3, 5, 7, 10, 12, 14, and 18.
6 wk old female nu/nu mice were purchased from Simonsen Labs, Gilroy, Calif. They were injected with 5×10^6 HCT116 cells SQ in right flank. When tumors reached sufficient size for study, they were randomized into groups. • Vehicle: 114.6 mm^3 • Test compound: 106.1 mm^3 • Test compound: 84.1 mm^3
Animals dosed by bolus injection—IV through lateral tail vein for fourteen consecutive days. Caliper measurements were taken on Day 1, 4, 6, 8, 12, and 15.
6 wk old female nu/nu mice were purchased from Taconic Farms, Germantown N.Y. They were injected with 5×10^6 HCT116 cells SQ in right flank. When tumors reached sufficient size for study, they were randomized into groups. • Vehicle: 242.9 mm^3 • Test compound: 252.1 mm^3
Animals dosed by bolus injection—IV through lateral tail vein for five consecutive days. Caliper measurements were taken on Day 1, 4, and 6.
6 wk old female nu/nu mice were purchased from Taconic Farms, Germantown N.Y. They were injected with 5×10^6 HCT116 cells SQ in right flank. When tumors reached sufficient size for study, they were randomized into groups. • Vehicle: 242.9 mm^3 • Test compound: 236.1 mm^3
6 wk old female nu/nu mice were purchased from Taconic Farms, Germantown N.Y. They were injected with 5×10^6 HCT116 cells SQ in right flank. When tumors reached sufficient size for study, they were randomized into groups. • Vehicle: 242.9 mm^3 • Test compound: 254.7 mm^3
6 wk old female nu/nu mice were purchased from Taconic Farms, Germantown N.Y. They were injected with 5×10^6 HCT116 cells SQ in right flank. When tumors reached sufficient size for study, they were randomized into groups.
Animals dosed by bolus injection—IV through lateral tail vein for nine consecutive days. Caliper measurements were taken on Day 1, 3, 5, 7, and 9.
Animals dosed by bolus injection—IV through lateral tail vein for seven consecutive days. Caliper measurements were taken on Day 1, 3, 5, and 7.

MiaPaca = assay: MTS cell proliferation assay, MiaPaca; type: cell-based; settings: Table 1C
Experimental: as §1

[1] = Homo sapiens, HCT-116, HCT-116, Table 1A, read-out: HCT-116 MTs
[2] = 25 mg/kg, five consecutive days
[3] = 12.5 mg/kg, fourteen consecutive days
[4] = different dose levels, fourteen consecutive days
[5] = Homo sapiens, MIA PaCa-2, M CELL MiaPaca
[6] = Homo sapiens, HCT-116, M CELL HCT-116, Table 1C, read-out: M DATA
[7] = 25 and 12.5 mg/kg, seven consecutive days

Row | IC50 (c-Myc template DNA) [µM] | IC50 (HCT-116; [1]) [nM] | Structure (SMILES) | other results
1 | 10 | 6100 | CN1CCCC1CCNC(=O)c1c(=O)c2cc(SCCc3cnccn3)ccc2n2c1sc1ccccc12 (centres unmarked) | –
2 | 9.3 | 5700 | COc1ccc2c(c1)sc1c(C(=O)NCCC3CCCN3C)c(=O)c3cc(F)c(SCCc4cnccn4)cc3n12 (centres unmarked) | –
3 | 1.7 | 3570 | CN1CCCC1CCNC(=O)c1c(=O)c2cc(F)c(SCCc3cnccn3)cc2n2c1sc1cc(Cl)ccc12 (centres unmarked) | –
4 | 9 | 300 | CC(C)N1CCN(c2cc3c(cc2F)c(=O)c(C(=O)NCCN2CCCC2)c2sc4ccccc4n23)CC1 | –
5 | > 15 | – | CC(C)N1CCN(c2cc3c(=O)c(C(=O)NCCC4CCCN4C)c4sc5ccccc5n4c3cc2Cl)CC1 (centres unmarked) | –
6 | 1.3 | 3400 | CN1CCCC1CCNC(=O)c1c(=O)c2cc(F)c(N3CCC(c4cnccn4)C3)cc2n2c1sc1ccccc12 (centres unmarked) | –
7 | 10.5 | 700 | CN1CCCC1CCNC(=O)c1c(=O)c2cc(F)c(N3CCC(c4cnccn4)C3)cc2n2c3ccccc3n(C)c12 (centres unmarked) | –
8 | 15 | 2300 | CN1CCCC1CCNC(=O)c1c(=O)c2cc(F)c(SCCc3cnccn3)cc2n2c3ccccc3n(C)c12 (centres unmarked) | –
9 | 15 | 300 | Cn1c2ccccc2n2c3cc(SCCc4cnccn4)c(F)cc3c(=O)c(C(=O)NCCN3CCCC3)c12 | –
10 | 15 | 300 | CC(C)N1CCN(c2cc3c(cc2F)c(=O)c(C(=O)NCCC2CCCN2C)c2n(C)c4ccccc4n32)CC1 (centres unmarked) | –
11 | > 15 | – | CC(C)N1CCN(c2cc3c(cc2F)c(=O)c(C(=O)NCCN2CCCC2)c2n(C)c4ccccc4n32)CC1 | –
12 | 5.8 | 570 | O=C(NCCN1CCCC1)c1c(=O)c2cc(F)c(SCCc3cnccn3)cc2n2c1sc1ccccc12 [drawing 15] | –

Continued, compound first:

Row | Structure (SMILES) | IC50 (c-Myc template DNA) [µM] | IC50 (HCT-116; [1]) [nM] | other results
13 | Nc1ccccc1Sc1c(F)cc2c(=O)c(C(=O)NCCN3CCCC3)c3sc4ccccc4n3c2c1F | 15 | 2400 | –
14 | O=C(NCCN1CCCC1)c1c(=O)c2cc(F)c(N3CCC(c4cnccn4)C3)c(F)c2n2c1sc1ccccc12 (centres unmarked) | 11.6 | 3500 | –
15 | Cn1c2ccccc2n2c3cc(N4CCC(c5cnccn5)C4)c(F)cc3c(=O)c(C(=O)NCCN3CCCC3)c12 (centres unmarked) | 8.2 | 100 | –
16 | Cn1c2ccccc2n2c3cc(F)c(F)cc3c(=O)c(C(=O)NCCN3CCCC3)c12 | 15 | 300 | –
17 | CC(C)N1CCN(c2nc3c(cc2F)c(=O)c(C(=O)NCCC2CCCN2C)c2sc4ccc(Cl)cc4n23)CC1 (centres unmarked) | – | – | activity in HCT116 xenograft (HCT116 cells; [2]): activity; adverse effects (HCT116 cells; [2]): no adverse effects observed
18 | CC(=O)N1CCN(c2ccc3c(=O)c(C(=O)NCCN4CCCC4)c4n(C)c5ccccc5n4c3n2)CC1 | – | – | activity in HCT116 xenograft (HCT116 cells; [3]): activity; adverse effects (HCT116 cells; [3]): no adverse effects observed; activity in HCT116 xenograft (HCT116 cells; [4]): dose dependent activity; adverse effects (HCT116 cells; [4]): no adverse effects observed
19 | NC1CCN(c2nc3c(cc2F)c(=O)c(C(=O)NCCN2CCCC2)c2sc4ccccc4n23)C1 (centres unmarked) | – | – | activity in HCT116 xenograft (HCT116 cells; [2]): activity; adverse effects (HCT116 cells; [2]): no adverse effects observed
20 | CN1CCCC1CCNC(=O)c1c(=O)c2cc(F)c(SCCc3cnccn3)cc2n2c1sc1ccccc12 (centres unmarked) [drawing 14] | 7.2 | 1100 | –
21 | O=C(NCCN1CCCC1)c1c(=O)c2c(N3CCCC3)ccnc2n2c1sc1ccccc12 [drawing 145] | – | – | IC50 (MiaPaca; [5]): 2300 nM
22 | CC(=O)NC1CCN(c2ccnc3c2c(=O)c(C(=O)NCCN2CCCC2)c2sc4ccccc4n23)C1 (centres unmarked) [drawing 147] | – | – | IC50 (MiaPaca; [5]): 700 nM
23 | O=C(NCCN1CCCC1)c1c(=O)c2cnc(N3CCCC3)nc2n2c1sc1ccc(Cl)cc12 [drawing 212] | – | – | IC50 (HCT-116; M CELL HCT-116, Table 1C, read-out: M DATA): 210 nM
24 | O=C(NCCN1CCCC1)c1c(=O)c2cnc(N3CCCC3)nc2n2c1sc1ccc(Cl)cc12 [drawing 213] | – | – | IC50 (MiaPaca; M CELL MiaPaca): 300 nM
25 | O=C1CN(c2ccnc3c2c(=O)c(C(=O)NCCN2CCOCC2)c2sc4ccccc4n23)CCN1 [drawing 234] | – | – | IC50 (MiaPaca; [5]): 6600 nM
26 | O=C(NCCN1CCCC1)c1c(=O)c2ccc(NCCN3CCOCC3)nc2n2c1sc1ccccc12 [drawing 307] | – | – | IC50 (HCT-116; [6]): 20 nM
27 | CN(C)CCN(C)c1ccc2c(=O)c(C(=O)NCCC3CCCN3C)c3sc4ccccc4n3c2n1 (centres unmarked) [drawing 385] | – | – | IC50 (HCT-116; [6]): 20 nM
28 | CC(=O)N1CCN(c2ncc3c(=O)c(C(=O)NCCN4CCCC4)c4sc5ccccc5n4c3n2)CC1 [drawing 653] | – | – | activity in HCT116 xenograft (HCT116 cells; [2]): activity; adverse effects (HCT116 cells; [2]): no adverse effects observed
29 | O=C(NCCN1CCCC1)c1c(=O)c2cnc(N3CCCC3)nc2n2c1sc1ccccc12 [drawing 654] | – | – | activity in HCT116 xenograft (HCT116 cells; [2]): activity; adverse effects (HCT116 cells; [2]): no adverse effects observed
30 | CC(=O)N1CCN(c2nc3c(cc2F)c(=O)c(C(=O)NCCN2CCCC2)c2n(C)c4ccccc4n32)CC1 [drawing 655] | – | – | adverse effects (HCT116 cells; 25 and 12.5 mg/kg, nine consecutive days): no adverse effects observed; activity in HCT116 xenograft (HCT116 cells; high dose (25 mg/kg), nine consecutive days): limited activity; activity in HCT116 xenograft (HCT116 cells; mid dose (12.5 mg/kg), nine consecutive days): no activity
31 | CN1CCCC1CCNC(=O)c1c(=O)c2ccc(N3CCC(c4cnccn4)C3)nc2n2c1sc1ccc(Cl)cc12 (centres unmarked) [drawing 656] | – | – | activity in HCT116 xenograft (HCT116 cells; [7]): excellent activity with minimal dose dependency; adverse effects (HCT116 cells; [7]): No adverse effects were observed
